From patent US12577234B2, “Antagonists of the muscarinic acetylcholine receptor M4” (Vanderbilt University, priority 2017, dated 2026)

Target: T1, human mAChR M4 (Homo sapiens, UniProt P08173)
T1 construct: expressed in transfected cells; host or cells: CHO-K1 (ATCC), stably co-expressing chimeric G protein Gqi5
T1 sequence (P08173 1-479): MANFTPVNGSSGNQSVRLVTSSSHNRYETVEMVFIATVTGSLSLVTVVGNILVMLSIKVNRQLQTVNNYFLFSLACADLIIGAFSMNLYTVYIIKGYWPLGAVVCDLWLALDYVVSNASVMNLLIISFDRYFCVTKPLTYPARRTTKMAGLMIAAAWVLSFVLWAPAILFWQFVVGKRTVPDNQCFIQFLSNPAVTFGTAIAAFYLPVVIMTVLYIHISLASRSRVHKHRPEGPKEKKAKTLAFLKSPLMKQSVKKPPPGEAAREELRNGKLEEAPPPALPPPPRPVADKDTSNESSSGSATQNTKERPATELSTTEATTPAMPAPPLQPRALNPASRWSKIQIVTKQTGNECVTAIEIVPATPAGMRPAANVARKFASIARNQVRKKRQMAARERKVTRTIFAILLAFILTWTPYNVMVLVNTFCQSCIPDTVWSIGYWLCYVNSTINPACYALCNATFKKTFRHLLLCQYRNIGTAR
Experiment: mAChR M4 cell-based functional assay (calcium mobilization, EC80 acetylcholine), human M4
Conditions: for IC50: M4/Gqi5/CHO-K1 cells, decrease of EC80 acetylcholine response; for Emin: human M4, % ACh maximum at 30 μM
Experimental: Human or rat M4 cDNA, along with the chimeric G protein Gqi5, were transfected into Chinese hamster ovary (CHO-K1) cells purchased from the American Type Culture Collection using Lipofectamine2000. M4/Gqi5/CHO cells were grown in Ham's F-12 medium containing 10% heat-inactivated fetal bovine serum (FBS), 20 mM HEPES, 500 μg/mL G418 sulfate, and 200 μg/mL Hygromycin B.
For high throughput measurement of agonist-evoked increases in intracellular calcium, CHO-K1 cells stably expressing muscarinic receptors were plated in growth medium lacking G418 and hygromycin at 15,000 cells/20 μL/well in Greiner 384-well black-walled, tissue culture (TC)-treated, clear-bottom plates (VWR). Cells were incubated overnight at 37° C. and 5% CO2. […] Compound master plates were formatted in a 10 point concentration-response curve (CRC) format (1:3 dilutions) in 100% DMSO with a starting concentration of 10 or 1 mM using a BRAVO liquid handler (Agilent). Test compound CRCs were then transferred to daughter plates (240 nL) using the Echo acoustic plate reformatter (Labcyte, Sunnyvale, CA) and then diluted into assay buffer (40 μL) to a 2× stock using a Thermo Fisher Combi (Thermo Fisher Scientific, Waltham, MA).
Calcium flux was measured using the Functional Drug Screening System (FDSS) 6000 or 7000 (Hamamatsu Corporation, Tokyo, Japan) as an increase in the fluorescent static ratio. Compounds were applied to cells (20 μL, 2×) using the automated system of the FDSS at 2 seconds into the protocol and the data were collected at 1 Hz. […] Agonist activity was analyzed as a concentration-dependent increase in calcium mobilization upon compound addition. Positive allosteric modulator activity was analyzed as a concentration-dependent increase in the EC20 acetylcholine response. Antagonist activity was analyzed as a concentration-dependent decrease in the EC80 acetylcholine response; for the purposes of the tables herein, an IC50 (inhibitory concentration 50) was calculated as a concentration-dependent decrease of the response elicited by an EC80 concentration of acetylcholine. Concentration-response curves were generated using a four-parameter logistical equation in XLFit curve fitting software (IDBS, Bridgewater, NJ) for Excel (Microsoft, Redmond, WA) or Prism (GraphPad Software, Inc., San Diego, CA) or the Dotmatics software platform (Dotmatics, Bishop's Stortford, UK).

SMILES	Human M4 Emin (Table 10)	IC50 (Table 10)	IC50 (Table 9)	Emin (Table 9)
Cc1cnn(C)c1-c1ccc(N[C@H]2C[C@@H]3CN(CC4CCCCO4)C[C@@H]3C2)nn1 (stereo partly drawn) [Compound 38, (3aR,5s,6aS)-N-[6-(2,4-dimethylpyrazol-3-yl)pyridazin-3-yl]-2-(tetrahydropyran-2-ylmethyl)-3,3a,4,5,6,6a-hexahydro-1H-cyclopenta[c]pyrrol-5-amine]			31.8 nM	5.45%
Fc1ccc(Cl)c(-c2ccc(NC[C@H]3C[C@@H]4CN(CC5CCOCC5)C[C@@H]4C3)nn2)c1 [Compound 71, N-[[(3aR,5s,6aS)-2-(tetrahydropyran-4-ylmethyl)-3,3a,4,5,6,6a-hexahydro-1H-cyclopenta[c]pyrrol-5-yl]methyl]-6-(2-chloro-5-fluoro-phenyl)pyridazin-3-amine]			364 nM	3.81%
Cc1cnn(C)c1-c1ccc(NCCC2C[C@@H]3CN(CC4CCOCC4)C[C@@H]3C2)nn1 (stereo partly drawn) [Compound 125, N-[2-[(3aR,6aS)-2-(tetrahydropyran-4-ylmethyl)-3,3a,4,5,6,6a-hexahydro-1H-cyclopenta[c]pyrrol-5-yl]ethyl]-6-(2,4-dimethylpyrazol-3-yl)pyridazin-3-amine]			28.7 nM	4.41%
Cc1nn(C)cc1-c1ccc(NCC2C[C@@H]3CN(CC(C)C(C)(C)C)C[C@@H]3C2)nn1 (stereo partly drawn) [Compound 63, N-[[(3aR,6aS)-2-(2,3,3-trimethylbutyl)-3,3a,4,5,6,6a-hexahydro-1H-cyclopenta[c]pyrrol-5-yl]methyl]-6-(1,3-dimethylpyrazol-4-yl)pyridazin-3-amine]			108 nM	3.46%
Cc1nn(C)cc1-c1ccc(OCC2C[C@@H]3CN(Cc4ccccn4)C[C@@H]3C2)nn1 (stereo partly drawn) [Compound 103, (3aR,6aS)-5-[[6-(1,3-dimethylpyrazol-4-yl)pyridazin-3-yl]oxymethyl]-2-(2-pyridylmethyl)-3,3a,4,5,6,6a-hexahydro-1H-cyclopenta[c]pyrrole]			9870 nM	14.7%
Fc1ccc(Cl)c(-c2ccc(OCC3C[C@@H]4CN(Cc5ccccc5)C[C@@H]4C3)nn2)c1 (stereo partly drawn) [Compound 114, (3aR,6aS)-2-benzyl-5-[[6-(2-chloro-5-fluoro-phenyl)pyridazin-3-yl]oxymethyl]-3,3a,4,5,6,6a-hexahydro-1H-cyclopenta[c]pyrrole]			2500 nM	6.02%
Cc1cnn(C)c1-c1ccc(OCC2C[C@@H]3CN(CCC(C)(C)C)C[C@@H]3C2)nn1 (stereo partly drawn) [Compound 78, (3aR,6aS)-2-(3,3-Dimethylbutyl)-5-[[6-(2,4-dimethylpyrazol-3-yl)pyridazin-3-yl]oxymethyl]-3,3a,4,5,6,6a-hexahydro-1H-cyclopenta[c]pyrrole]			105 nM	4.35%
Cc1nn(C)cc1-c1ccc(N[C@H]2C[C@@H]3CN(CC(C)C(C)(C)C)C[C@@H]3C2)nn1 (stereo partly drawn) [Compound 4, (3aR,5s,6aS)-N-[6-(1,3-dimethylpyrazol-4-yl)pyridazin-3-yl]-2-(2,3,3-trimethylbutyl)-3,3a,4,5,6,6a-hexahydro-1H-cyclopenta[c]pyrrol-5-amine]			2 nM	2.81%
CCCC(C)CN1C[C@H]2C[C@H](Nc3ccc(-c4cc(F)ccc4Cl)nn3)C[C@H]2C1 (stereo partly drawn) [Compound 30, (3aR,5s,6aS)-N-[6-(2-chloro-5-fluoro-phenyl)pyridazin-3-yl]-2-(2-methylpentyl)-3,3a,4,5,6,6a-hexahydro-1H-cyclopenta[c]pyrrol-5-amine]			10 nM	2.88%

The next lines start with the values.

Human M4 Emin (Table 10)	IC50 (Table 10)	IC50 (Table 9)	Emin (Table 9)	SMILES
5%	13.4 nM			c1cc(N2CCOCC2)nnc1N[C@H]1C[C@@H]2CN(CC3CCOCC3)C[C@@H]2C1 [Compound 191, (3aR,5s,6aS)-N-(6-morpholinopyridazin-3-yl)-2-(tetrahydropyran-4-ylmethyl)-3,3a,4,5,6,6a-hexahydro-1H-cyclopenta[c]pyrrol-5-amine]
6%	1.4 nM			Fc1ccc(F)c(-c2ccc(N[C@H]3C[C@@H]4CN(CC5CCOCC5)C[C@@H]4C3)nn2)c1 [Compound 215, (3aR,5s,6aS)-N-[6-(2,5-difluorophenyl)pyridazin-3-yl]-2-(tetrahydropyran-4-ylmethyl)-3,3a,4,5,6,6a-hexahydro-1H-cyclopenta[c]pyrrol-5-amine]
5%	52.9 nM			CC(=O)Nc1ccc(-c2cnc(N[C@H]3C[C@@H]4CN(CC5CC6C=CC5C6)C[C@@H]4C3)cn2)cc1 (stereo partly drawn) [Compound 157, N-[4-[5-[[(3aR,5s,6aS)-2-(5-bicyclo[2.2.1]hept-2-enylmethyl)-3,3a,4,5,6,6a-hexahydro-1H-cyclopenta[c]pyrrol-5-yl]amino]pyrazin-2-yl]phenyl]acetamide]
4%	84.1 nM			Fc1ccc(Cl)c(-c2ccc(N[C@@H]3C[C@@H]4CN(CC5CCOCC5)C[C@@H]4C3)nn2)c1 [Compound 159, (3aR,5r,6aS)-N-[6-(2-chloro-5-fluoro-phenyl)pyridazin-3-yl]-2-(tetrahydropyran-4-ylmethyl)-3,3a,4,5,6,6a-hexahydro-1H-cyclopenta[c]pyrrol-5-amine]
38%	57.4 nM			CC(=O)Nc1ccccc1-c1ccc(N[C@H]2C[C@@H]3CN(CC4CCOCC4)C[C@@H]3C2)nn1 [Compound 206, N-[2-[6-[[(3aR,5s,6aS)-2-(tetrahydropyran-4-ylmethyl)-3,3a,4,5,6,6a-hexahydro-1H-cyclopenta[c]pyrrol-5-yl]amino]pyridazin-3-yl]phenyl]acetamide]
5%	54.3 nM			Fc1ccc(Cl)c(-c2ccc(N[C@H]3C[C@@H]4CN(Cc5cnccn5)C[C@@H]4C3)nn2)c1 [Compound 170, (3aR,5s,6aS)-N-[6-(2-chloro-5-fluoro-phenyl)pyridazin-3-yl]-2-(pyrazin-2-ylmethyl)-3,3a,4,5,6,6a-hexahydro-1H-cyclopenta[c]pyrrol-5-amine]
		1.4 nM		Cc1cccnc1CN1C[C@H]2C[C@H](Nc3ccc(-c4cn(C)nc4C)nn3)C[C@H]2C1 [compound 11]
5%	56.7 nM			FC(F)(F)Oc1ccc(-c2ccc(N[C@H]3C[C@@H]4CN(CC5CCOCC5)C[C@@H]4C3)nn2)cc1 [Compound 184, (3aR,5s,6aS)-2-(tetrahydropyran-4-ylmethyl)-N-[6-[4-(trifluoromethoxy)phenyl]pyridazin-3-yl]-3,3a,4,5,6,6a-hexahydro-1H-cyclopenta[c]pyrrol-5-amine]
4%	0.432 nM			Fc1cccc(Cl)c1-c1ccc(N[C@H]2C[C@@H]3CN(CC4CCOCC4)C[C@@H]3C2)nn1 [Compound 204, (3aR,5s,6aS)-N-[6-(2-chloro-6-fluoro-phenyl)pyridazin-3-yl]-2-(tetrahydropyran-4-ylmethyl)-3,3a,4,5,6,6a-hexahydro-1H-cyclopenta[c]pyrrol-5-amine]
4%	1.42 nM			c1cnc2ccc(-c3ccc(N[C@H]4C[C@@H]5CN(CC6CCOCC6)C[C@@H]5C4)nn3)cc2c1 [Compound 181, (3aR,5s,6aS)-N-[6-(6-quinolyl)pyridazin-3-yl]-2-(tetrahydropyran-4-ylmethyl)-3,3a,4,5,6,6a-hexahydro-1H-cyclopenta[c]pyrrol-5-amine]
14%	7.94 nM			c1coc(-c2ccc(N[C@H]3C[C@@H]4CN(CC5CCOCC5)C[C@@H]4C3)nn2)c1 [Compound 188, (3aR,5s,6aS)-N-[6-(2-furyl)pyridazin-3-yl]-2-(tetrahydropyran-4-ylmethyl)-3,3a,4,5,6,6a-hexahydro-1H-cyclopenta[c]pyrrol-5-amine]
